Experimental data reported in patent publication EP0427799B1, “METHOD AND COMPOUNDS FOR AICA RIBOSIDE DELIVERY AND FOR LOWERING BLOOD GLUCOSE” (GENSIA, INC., priority 1989, dated 1990).
“And” between values parts separate entries of the source, which are not always exact repeats. Equal values may be shown once.

How the values were obtained:
[1] = tested on: Blood Glucose; assay: Effect on blood glucose in rabbits (hexokinase procedure); type: in vivo, Rabbits (New Zealand White); details: for Blood Glucose Change(+/-): 2H post-dose vs pre-dose; for Blood Glucose Change(+/-) / Blood Glucose 2H Post-Dose: individual rabbits
Protocol: Rabbits (New Zealand White) were given IV doses of AICA riboside, either 2 ml/kg (100 mg/kg) or 4 ml/kg (200 mg/kg). Blood was obtained by venipuncture before AICA riboside administration and two hours post-administration. Blood glucose concentrations before administration and two hours post-administration were measured by the hexokinase procedure (see Example K). The percent change (+/-) from pre-dose values are reported. Both dosage levels decreased blood glucose levels as compared with pre-AICA riboside administration levels.
(§1) AICA riboside (100, 250 or 500 mg/kg) or saline (as a control) was administered intraperitoneally to rats. Sixty minutes after AICA riboside administration, the rats were sacrificed by cervical dislocation. Blood glucose was determined spectrophotometrically measuring O.D. at 340 nm by the hexokinase method using the glucose SR Reagent (Medical Analysis Systems, Inc.) Blood lactate and pyruvate were determined spectrophotometrically measuring O.D. at 340 nm using lactate dehydrogenase in the presence of excess NAD or NADH, respectively.

[2] = tested on: lactate and pyruvate; assay: Blood lactate and pyruvate in rats; type: in vivo
Protocol: as §1

[3] = in vivo; parameters: species or system dogs; details: dog
Protocol: The bioavailability of AICA riboside after oral administration of either AICA riboside or one of the AICA riboside prodrugs of the present invention was evaluated in dogs. Plasma concentrations of AICA riboside and intact prodrug were measured using HPLC. (See Dixon, R., et al., Res. Commun. Chem. Path. Pharm. 65:405-408 (1989)). Bioavailability of AICA riboside was evaluated in terms of the time required to reach maximum plasma concentration (Tmax), the maximum concentration achieved (Cmax) and the area under the plasma concentration-time curve (AUC) from time zero to the last measurable plasma concentration. Absolute bioavailability (F%) was calculated by dividing the AUC for AICA riboside following oral administration of the prodrug (or AICA riboside itself) by the AUC following intravenous administration of an equivalent amount of AICA riboside (100% bioavailability).

[4] = tested on: insulin; assay: Plasma insulin levels in humans; type: in vivo; details: human subjects; precedes the drop in blood glucose
Protocol: Human (male) volunteers were given a 15-minute intravenous infusion of 50 mg/kg AICA riboside. Plasma concentrations of immunoreactive insulin was determined by RIA during and following the administration for about 4 hours. (RIA kit, Amersham Clinical).

[5] = tested on: skin flap; assay: Protection against ischemic injury in skin flap model; type: in vivo, rats; details: skin flap viability 3 days post-surgery; pretreatment 45 minutes before surgery (SOD at time of surgery)
Protocol: Compounds were tested for their activity in protecting against ischemic injury in a skin flap model in rats.
Animals were pretreated with AICA riboside or AICA riboside plus adenosine deaminase (ADA) 45 minutes before surgery or, as a positive control, superoxide dismutase (SOD) was used at the time of surgery. A skin flap was raised on the abdomen of a rat for 6 hours and then sewn down. The percent viability of the flaps was evaluated at 3 days post-surgery.
This effect was not as pronounced in the presence of ADA, supporting the importance of adenosine's protective role in this setting.

[6] = 2ml (100 mg/kg) IV, rabbit 10 not included

NC(=O)c1ncn([C@@H]2O[C@H](CO)[C@@H](O)[C@H]2O)c1N [AICA riboside, 1-β-D-ribofuranosyl-5-aminoimidazole-4-carboxamide]
Blood Glucose Change(+/-) ([1]; 2ml (100 mg/kg) IV): -25 mg% and +102* mg% and -24 mg% (2×) and -28 mg% and +10 mg% and -22 mg% and -23 mg% and -11 mg% and -53 mg% | Blood Glucose 2H Post-Dose ([1]; 2ml (100 mg/kg) IV): 93 mg% and 215* mg% and 87 mg% and 89 mg% (2×) and 122 mg% and 96 mg% and 98 mg% and 106 mg% and 99 mg% | Blood Glucose 2H Post-Dose, Mean [1, 6]: 98 mg% | Blood Glucose Change(+/-), Mean [1, 6]: -22 mg% | Blood Glucose Change(+/-) ([1]; 4ml (200mg)/kg IV): -14 mg% and -76 mg% and -42 mg% and -69 mg% and -59 mg% | Blood Glucose 2H Post-Dose ([1]; 4ml (200mg)/kg IV): 100 mg% and 32** mg% and 79 mg% and 56 mg% and 62 mg% | Blood Glucose 2H Post-Dose, Mean ([1]; 4ml (200mg)/kg IV): 66 mg% | Blood Glucose Change(+/-), Mean ([1]; 4ml (200mg)/kg IV): -52 mg% | lactate to pyruvate ratio [2]: not changed | liver glycogen, serum lactate and pyruvate [2]: elevation of liver glycogen and of serum lactate and pyruvate | AUC(0-t) ([3]; iv): 8300 ng·h/mL | F ([3]; iv): 100% | AUC(0-t) ([3]; po): 900 ng·h/mL | Cmax ([3]; po): 1100 ng/mL | Tmax ([3]; po): 45 min | bioavailability ([3]; po): 11% | serum insulin levels [4]: significant elevations of serum insulin levels | % Viable [5]: 75%
